Experimental data reported in paper PMC6268235, “A New Butanolide Compound from the Aerial Part of Lindera akoensis with Anti-inflammatory Activity” (Molecules, 2012).

Assays:
[1] = tested on: LPS-stimulated production of nitrite in RAW264.7 cell; assay: Inhibition of LPS-stimulated nitrite (NO) production, Griess reaction; format: cell-based, murine; details: for IC50: Mus musculus, RAW264.7, RAW 264.7 cells, LPS 100 ng/mL, 24 h, Griess reaction, read-out: IC50 (decrease nitrite of LPS-stimulated production)
Description: NO, produced from L-arginine by NO synthase, has various biological actions, e.g., as a defense and regulatory molecule for homeostatic equilibrium. However, in pathophysiologic conditions, such as inflammation, there is an increased production of NO by inducible NO synthase (iNOS). Macrophages have been expected to be an origin of inflammation, because they contain various chemical mediators that may be responsible for several inflammatory stages. The inhibitory activity toward NO production, induced by lipopolysaccharides (LPS), by murine macrophage-derived RAW264.7 cells was assayed.
(§1) A murine macrophage cell line RAW264.7 (BCRC No. 60001) was purchased from the Bioresources Collection and Research Center (BCRC, Hsinchu, Taiwan) of the Food Industry Research and Development Institute (Hsinchu, Taiwan). Cells were cultured in plastic dishes containing Dulbecco’s Modified Eagle Medium (DMEM, Sigma, St. Louis, MO, USA) supplemented with 10% fetal bovine serum (FBS, Sigma) in a CO2 incubator (5% CO2 in air) at 37 °C and subcultured every 3 days at a dilution of 1:5 using 0.05% trypsin-0.02% EDTA in Ca^2+-, Mg^2+-free phosphate-buffered saline (DPBS).
NO production was indirectly assessed by measuring the nitrite levels in the cultured media and serum determined by a colorimetric method based on the Griess reaction. The cells were incubated with butanolides (0, 3.125, 6.25, 12.5, 25 and 50 μg/mL) in the presence of LPS (100 ng/mL) at 37 °C for 24 h. Then, cells were dispensed into 96-well plates, and 100 μL of each supernatant was mixed with the same volume of Griess reagent (1% sulfanilamide, 0.1% naphthylethylenediamine dihydrochloride and 5% phosphoric acid) and incubated at room temperature for 10 min, the absorbance was measured at 540 nm with a Micro-Reader (Molecular Devices). Serum samples were diluted four times with distilled water and deproteinized by adding 1/20 volume of zinc sulfate (300 g/L) to a final concentration of 15 g/L. After centrifugation at 10,000 × g for 5 min at room temperature, 100 μL supernatant was applied to a microtiter plate well, followed by 100 μL of Griess reagent. After 10 min of color development at room temperature, the absorbance was measured at 540 nm with a Micro-Reader. By using sodium nitrite to generate a standard curve, the concentration of nitrite was measured form absorbance at 540 nm.
IC50 values were estimated using a non-linear regression algorithm (Sigma Plot 8.0; SPSS Inc. Chicago, IL, USA). Statistical evaluation was carried out by one-way analysis of variance (ANOVA followed by Scheffe’s multiple range tests).

[2] = tested on: RAW264.7 cells; assay: Cell viability (MTT) in the presence of LPS; format: cell-based; details: RAW 264.7 cells, 100 ng/mL LPS, 24 h
Description: as §1
Cells (2 × 10^5) were cultured in 96-well plate containing DMEM supplemented with 10% FBS for 1 day to become nearly confluent. Then cells were cultured with compounds 1–5 in the presence of 100 ng/mL LPS (lipopolysaccharide) for 24 h. After that, the cells were washed twice with DPBS and incubated with 100 μL of 0.5 mg/mL MTT for 2 h at 37 °C testing for cell viability. The medium was then discarded and 100 μL dimethyl sulfoxide (DMSO) was added. After 30-min incubation, absorbance at 570 nm was read using a microplate reader (Molecular Devices, Sunnyvale, CA, USA).

Compound | IC50 [1] | LD50 (cell viability) [2] | anti-inflammatory activity (in words) ([1]; RAW264.7 cells, LPS-stimulated nitrite production)
CCCCCCCCCCC=CC1C(=O)OC(C)C1O (stereo not drawn) [Compound 1, 3β-((E)-dodec-1-enyl)-4β-hydroxy-5β-methyldihydrofuran-2-one] | 44.3 µM | 72.3 µM | 
CCCCCCCCCCCC/C=C/C1=CC(C)OC1=O (centres unmarked) [Compound 2, Akolactone A] | 180 µM | >211.9 µM | 
C=CCCCCCCCCC/C=C1\C(=O)OC(C)[C@@H]1O (stereo partly drawn) [Compound 3, (3Z,4α,5β)-3-(dodec-11-enylidene)-4-hydroxy-5-methylbutalactone] | 2.4 µM | 49.3 µM | 
C=CCCCCCCCCC/C=C1/C(=O)OC(C)[C@@H]1O (stereo partly drawn) [Compound 4, (3E,4α,5β)-3-(dodec-11-enylidene)-4-hydroxy-5-methylbutalactone] | 1.4 µM | 67.1 µM | 
C=C1OC(=O)/C(=C/CCCCCCCCCCC)[C@H]1O [Compound 5, dihydroisoobtusilactone] | 97.9 µM | >178.6 µM | no significant active
